In patent publication US11111232B2, “Substituted cyclobutylpyridine and cyclobutylpyrimidine compounds as indoleamine 2,3-dioxygenase (IDO) inhibitors” (MERCK SHARP & DOHME CORP., priority 2017, dated 2021):

What was measured:
Type in all cases: cell-based
IDO1 [1] = target: T1, IDO1 (Homo sapiens, UniProt P14902); experiment: IDO1 cellular assay in Hela cells stimulated with IFNγ; details: IFNγ 100 ng/mL, 300 uM L-tryptophan, about 48 hours, fluorescence readout
Procedure: IDO1 Cellular Assay in Hela Cells Stimulated with IFNγ
Hela cells were cultured in complete Hela culture medium (90% EMEM, 10% heat-inactivated fetal bovine serum) and expanded to about 1×10^9 cells. The cells were then collected and frozen down at 1×10^7 cells/vial in 1 mL frozen medium (90% complete Hela culture medium, 10% DMSO)
Compounds to be tested were serially diluted in ten 3-fold steps in DMSO starting from 10 mM DMSO stocks in Echo low volume plate(s).
Frozen Hela cells were thawed and transferred into Hela assay medium (99% complete Hela culture medium, 1% Pen/Strep) with 20 mL medium/vial of cells. The cells were spun down at 250 g in a table top centrifuge for 5 min and suspended in same volume of Hela assay medium. […] Sterile L-tryptophan were added to the cells with final concentration of 300 uM L-tryptophan. A small aliquot (2 mL/plate) of Hela cells were set aside and were not treated with IFNγ, to serve as the Max-E control.
Hela cells with and without IFNγ were dispensed to the respective wells of 384-well assay plates containing the compounds. The plates were incubated for about 48 hours at a 37° C., 5% CO2 incubator. Afterwards, […] of 0.5 M methyl isonipecotate in dimethyl sulfoxide were added into each well and the plates were sealed and incubated at 37° C. without CO2 overnight. The plates were centrifuged for 1 min at 200×g. The resulting fluorescence was measured in a Spectramax plate reader (Molecular Devices) with a 400 nm excitation filter and a 510 nm emission filter.
Potencies were calculated by linear least squares fit to the four parameter logistic IC50 equation.

IDO1 [2] = target: T1, IDO1; experiment: IDO1 HEK293 cellular assay; details: HEK293 cells transfected with Flag-IDO1 vector, 20-24 hours, fluorescence readout
Procedure: IDO1 HEK293 Cellular Assay
Compounds to be tested were serially diluted in ten 3-fold steps in DMSO starting from 10 mM DMSO stocks. Compound dilutions or DMSO alone were then dispensed from the dilution plate into a Greiner black 384-well assay plate (catalog #781086) using an Echo 550 acoustic liquid handler (Labcyte).
HEK293 cell pellets were resuspended to 5×10^5 cells/mL in complete HEK293 culture media (89% DMEM, 10% FBS, 1% penicillin/streptomycin). Suspended cells (2 mL) were dispensed into each well of a 6-well Corning plate (Catalog # 3516). Cells were allowed to attach and were incubated for 20 hours at 37° C. in a 5% CO2 incubator. Flag-IDO1 vector (Genscript True ORF Gold, 2 ug) in 150 uL of Opti-MEM medium was added to each well of a Corning 24 well plate (Cat # 3527) and incubated for 5 minutes at room temperature. To each well of the 24-well plate was added […] Lipofectamine 2000 (Gibco) and the plate incubated at room temperature for 20-30 minutes. To each well of attached cells in the 6-well plate, […] of the transfection mix from the 24-well plate was gently added to each well and IDO1 protein was allowed to express for 24-30 hours at 37 degrees Celsius in a 5% CO2 incubator.
Media was removed from the cells which were then washed with 2 mL Dulbecco's phosphate-buffered saline (DPBS). After removal of DPBS, 0.5 mL of TrypLE (Gibco) was added and incubated at 5 minutes until cells lift from the surface of the wells. Complete HEK293 culture media (4 mL) was added to each well and cells were collected and pooled into a conical tube. Cells were pelleted at 200×g for 5 minutes and resuspended in an equal volume of complete DMEM medium. Cells were diluted to 4×10^5 cells per mL in complete HEK293 media. L-Tryptophan was added to added to give a final concentration of […]. The diluted transfected cells […] or nontransfected cells […] were dispensed into wells of Greiner black 384-well assay plates (catalog #781086) containing previously diluted compounds. The plate is briefly mixed and centrifuged at 200×g for 10 seconds to collect cells at the bottom of the plate. Plates were covered and incubated for 20-24 hours at 37 degrees C. in a 5% CO2 incubator. Afterwards […] of 0.5 M methyl isonipecotate in dimethyl sulfoxide was added to each well, mixed, sealed, and centrifuged at 500 rpm for 10 seconds. Plates were incubated at 37 degrees in a 5% CO2 incubator overnight to develop fluoresence. The plates are allowed to cool and then centrifuged for 1 minute at 1000×g. The resulting fluoresence was measured in an Envision plate reader (Perkin Elmer) with a 400/25 nm excitation filter and an 510/20 nm emission filter.
(§1) The fluoresence intensity of each well was corrected for the background observed in wells with untransfected cells and was expressed as a fraction of the intensity observed in wells of IDO1 transfected cells and DMSO only. Potencies were calculated by linear least squares fit to the four parameter logistic IC50 equation.

TDO = target: T2, TDO (Homo sapiens, UniProt P48775); experiment: TDO cellular assay in frozen SW48 cells; details: 300 uM L-tryptophan, about 48 hours, fluorescence readout
T2 construct: endogenous in cells; host or cells: SW48 cells (A2780 cells as low-TDO control)
T2 sequence (P48775 whole entry): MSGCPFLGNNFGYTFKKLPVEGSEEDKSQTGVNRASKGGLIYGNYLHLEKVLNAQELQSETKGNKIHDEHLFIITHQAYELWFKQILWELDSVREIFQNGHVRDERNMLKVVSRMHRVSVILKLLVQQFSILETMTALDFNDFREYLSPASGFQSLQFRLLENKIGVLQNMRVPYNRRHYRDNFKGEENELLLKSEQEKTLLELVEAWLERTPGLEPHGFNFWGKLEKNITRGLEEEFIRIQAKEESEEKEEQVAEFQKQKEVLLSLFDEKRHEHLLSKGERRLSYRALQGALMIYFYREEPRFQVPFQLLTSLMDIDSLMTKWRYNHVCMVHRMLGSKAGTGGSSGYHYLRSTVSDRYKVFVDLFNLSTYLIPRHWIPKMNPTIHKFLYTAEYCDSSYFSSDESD
Procedure: TDO Cellular Assay in Frozen SW48 Cells
SW48 cells were cultured in complete RPMI culture medium (90% RPMI, 10% heat-inactivated fetal bovine serum).
Compounds to be tested were serially diluted in ten 3-fold steps in DMSO starting from 10 mM DMSO stocks in Echo low volume plate(s). […] The cells were spun down at 350 g in a table top centrifuge for 5 minutes and suspended in same volume of RPMI assay medium. […] Sterile L-tryptophan (Sigma, Cat #T0254) was added to the cells with final concentration of 300 uM.
SW48 and A2780 cells were dispensed to the respective wells of 384-well assay plates containing the compounds. The plates were incubated for about 48 hours at a 37° C., 5% CO2 incubator. Afterwards, 12 μL of 0.5 M ethyl isonipecotate (Sigma Aldrich, Cat #E33505) in dimethyl sulfoxide were added into each well and the plates were sealed and incubated at 37° C. without CO2 overnight. The plates were centrifuged for 1 minute at 200×g. The resulting fluorescence was measured in a Spectramax plate reader (Molecular Devices) with a 400 nm excitation filter and a 510 nm emission filter.
as §1, with “fluorescence” for “fluoresence”, “A2780” for “untransfected”, “SW48” for “IDO1 transfected”

T1 sequence (P14902 whole entry): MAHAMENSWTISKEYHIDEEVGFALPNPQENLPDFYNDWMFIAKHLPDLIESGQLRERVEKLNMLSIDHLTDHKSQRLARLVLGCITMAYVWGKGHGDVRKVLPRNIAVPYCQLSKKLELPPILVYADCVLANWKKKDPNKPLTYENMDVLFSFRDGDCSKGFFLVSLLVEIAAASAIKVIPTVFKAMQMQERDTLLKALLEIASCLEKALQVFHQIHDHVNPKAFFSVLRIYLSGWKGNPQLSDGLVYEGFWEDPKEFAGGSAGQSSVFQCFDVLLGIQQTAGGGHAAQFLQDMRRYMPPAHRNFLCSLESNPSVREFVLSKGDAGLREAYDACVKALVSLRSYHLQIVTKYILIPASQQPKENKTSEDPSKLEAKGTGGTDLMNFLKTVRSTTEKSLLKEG

SMILES | IC50 (IDO1 [1]) [nM] | IC50 (IDO1 [2]) [nM] | IC50 (TDO) [nM]
O=C(CCC1CC1)Nc1ccc(C2(C(=O)Nc3ccc(F)cc3)CCC2)cn1 [Example 18, 1-{6-[(3-cyclopropylpropanoyl)amino]pyridin-3-yl}-N-(4-fluorophenyl)cyclobutane-1-carboxamide] | 29 | 32 | ≥ 10000
CC(C)CC(=O)Nc1ccc(C2(C(=O)Nc3ccc(F)cc3)CCC2)cn1 [Example 27, N-(4-fluorophenyl)-1-{6-[(3-methylbutanoyl)amino]pyridin-3-yl}cyclobutane-1-carboxamide] | 25 | 28 | ≥ 10000
O=C(Nc1ccc(C2(C(=O)Nc3ccc(F)cc3)CCC2)cn1)C1CCCC(F)(F)C1 (stereo not drawn) [Example 17, 3,3-difluoro-N-(5-{1-[(4-fluorophenyl)carbamoyl]cyclobutyl}pyridin-2-yl)cyclohexane-1-carboxamide] | 28 | 26 | ≥ 10000

Further molecules by falling IC50 (IDO1 [1]), results first:

IC50 (IDO1 [1]) [nM] | IC50 (IDO1 [2]) [nM] | IC50 (TDO) [nM] | SMILES
154 | 123 | ≥ 10000 | O=C(Nc1ccc(C2(C(=O)Nc3ccc(F)cc3)CCC2)cn1)C1CCCOC1 (stereo not drawn) [Example 22, N-(5-{1-[(4-fluorophenyl)carbamoyl]cyclobutyl}pyridin-2-yl)oxane-3-carboxamide]
138 | 156 | ≥ 10000 | O=C(Nc1ccc(C2(C(=O)Nc3ccc(F)cc3)CCC2)cn1)C1CCOCC1 [Example 20, N-(5-{1-[(4-fluorophenyl)carbamoyl]cyclobutyl}pyridin-2-yl)oxane-4-carboxamide]
83 | 70 | ≥ 10000 | O=C(CC1CC1)Nc1ccc(C2(C(=O)Nc3ccc(F)cc3)CCC2)cn1 [Example 30, 1-{6-[(cyclopropylacetyl)amino]pyridin-3-yl}-N-(4-fluorophenyl)cyclobutane-1-carboxamide]
72 | 76 | ≥ 10000 | O=C(CCC(F)(F)F)Nc1ccc(C2(C(=O)Nc3ccc(F)cc3)CCC2)cn1 [Example 5, N-(4-fluorophenyl)-1-(6-(4,4,4-trifluorobutanamido)pyridin-3-yl)cyclobutane-1-carboxamide]
